From US11548923B2, “Peptide compositions and methods of use thereof for disrupting TEAD interactions” (Fred Hutchinson Cancer Center, priority 2017, dated 2023)
Entries after “also recorded” stand apart in the source; their conditions may differ. Where a SMILES comes first, the peptide text is derived from it. Bridges are numbered along the chain shown (N, C = ends).

Assays:
[1] = biological target: T1, TEAD (Homo sapiens, UniProt P28347); experiment: Mammalian surface display (SDGF vector, HEK-293 cells) TEAD-binding flow cytometry; conditions: for TEAD binding of HEK-293 cells expressing SDGF-peptide: stained with 200 nM AF647-Streptavidin-TEAD; for TEAD binding of cells displaying variant versus parent peptide: HEK-293 suspension cells transfected with SDGF constructs
T1 construct: GST; made in house; host or cells: Hi5 insect cells (baculovirus, BacMagic, pIEX-BAC3)
T1 sequence (P28347 209-426): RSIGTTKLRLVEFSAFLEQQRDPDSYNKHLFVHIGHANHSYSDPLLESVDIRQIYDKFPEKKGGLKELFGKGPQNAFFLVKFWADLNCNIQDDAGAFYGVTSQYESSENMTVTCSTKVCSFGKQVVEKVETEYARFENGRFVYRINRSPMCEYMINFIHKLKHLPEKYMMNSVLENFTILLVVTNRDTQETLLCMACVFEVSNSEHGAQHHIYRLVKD

[2] = biological target: T2, biotinylated TEAD (Homo sapiens, UniProt P28347); experiment: Surface plasmon resonance (SPR) binding of soluble peptides to captured biotinylated TEAD; conditions: soluble peptides
T2 construct: GST; made in house; host or cells: Hi5 insect cells (baculovirus, BacMagic, pIEX-BAC3)
T2 sequence (P28347 209-426): as above

[3] = biological target: T3, YAP-TEAD interaction (Homo sapiens, UniProt P28347); experiment: YAP-TEAD disruption co-immunoprecipitation (Myc-TEAD resin, FLAG-YAP lysate); type: biochemical; conditions: for FLAG-YAP pull-down with Myc-TEAD resin in the presence of peptide: Silver stain and Western blot
T3 construct: expressed in transfected cells; host or cells: 293T cells (lysates)
T3 sequence (P28347 whole entry): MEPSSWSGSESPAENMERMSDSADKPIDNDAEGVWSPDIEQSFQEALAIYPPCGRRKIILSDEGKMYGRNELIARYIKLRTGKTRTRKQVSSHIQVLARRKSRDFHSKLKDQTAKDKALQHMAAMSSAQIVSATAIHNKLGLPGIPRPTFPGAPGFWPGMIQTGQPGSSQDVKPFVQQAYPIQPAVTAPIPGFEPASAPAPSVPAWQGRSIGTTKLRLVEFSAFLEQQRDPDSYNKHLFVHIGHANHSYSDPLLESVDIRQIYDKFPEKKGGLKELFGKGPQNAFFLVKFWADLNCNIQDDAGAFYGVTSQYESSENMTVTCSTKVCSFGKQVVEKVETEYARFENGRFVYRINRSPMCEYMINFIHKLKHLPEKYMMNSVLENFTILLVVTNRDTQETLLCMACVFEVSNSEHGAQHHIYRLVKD

[4] = biological target: T1, TEAD; experiment: TEAD binding of SDGF-displayed peptides after exposure to reducing agent; conditions: 5 minutes, 20 nM TEAD
Protocol: Peptides of this disclosure were also tested to evaluate if binding to TEAD was affected by exposure of peptide to reducing conditions. […] Cultures were grown for two days followed by incubation in 10 mM GSH or 10 mM DTT. Finally, cells were stained with TEAD. FIG. 13 illustrates binding to TEAD after cells expressing SDGF-SEQ ID NO: 9 are exposed to a reducing agent. FIG. 13A illustrates a flow cytometry plot showing binding of HEK-293 suspension cells transfected with SDGF-SEQ ID NO: 1 (GFP) incubated for 5 minutes in PBS, 10 mM DTT, or 10 mM glutathione (GSH) before staining with 20 nM biotinylated TEAD and 20 nM AF647-streptavidin. FIG. 13B illustrates a flow cytometry plot showing binding of HEK-293 suspension cells transfected with SDGF-SEQ ID NO: 9 (GFP) incubated for 5 minutes in PBS, 10 mM DTT, or 10 mM glutathione (GSH) before staining with 20 nM biotinylated TEAD and 20 nM AF647-streptavidin.

[5] = biological target: T4, TEAD binding to surface-displayed YAP (Homo sapiens, UniProt P28347); experiment: Competitive binding of peptides to TEAD versus cell surface-displayed YAP (flow cytometry)
T4 construct: made in house; host or cells: TEAD: Hi5 insect cells
T4 sequence (P28347 209-426): as the sequence (P28347 209-426) above
Protocol: FIG. 11D illustrates a flow cytometry plot of cells expressing SDGF-YAP that were incubated with 5 nM TEAD and then washed. Cells were immediately stained with AF647-streptavidin and analyzed for YAP-expressing cells that have bound TEAD. FIG. 11E illustrates a flow cytometry plot of cells expressing SDGF-YAP that were incubated with 5 nM TEAD and then washed. Cells were incubated on ice for 1 hour, stained with AF647-streptavidin and analyzed for YAP-expressing cells that have bound TEAD. FIG. 11F illustrates a flow cytometry plot of cells expressing SDGF-YAP that were incubated with 5 nM TEAD and then washed. […] FIG. 11G illustrates a flow cytometry plot of cells expressing SDGF-YAP that were incubated with 5 nM TEAD and then washed.

[6] = biological target: T5, YAP:TEAD dimers (Homo sapiens, UniProt P28347); experiment: YAP:TEAD proximity ligation assay (PLA) in HeLa cells; type: cell-based; conditions: 5 μM peptide with 5 μM dfTAT
T5 construct: endogenous in cells; host or cells: HeLa cells
T5 sequence (P28347 whole entry): as the sequence (P28347 whole entry) above
Protocol: Proximity Ligation Assay. […] HeLa cells can be seeded in an 8-well chamber slide (Nunc Lab-Tek II) in DMEM+10% FBS and 1× Pen/Strep, and can be grown overnight, reaching ˜50% confluence. Cells can be gently washed 3 times with PBS containing 1 mM CaCl2 and 0.5 mM MgCl2, then 2 times in serum-free DMEM. Wells (120 μL total) can receive either 5 μM (final) peptide in PBS, or PBS alone, and can also receive either 5 μM (final) dfTAT reagent in PBS, or PBS alone, before a 90 minute incubation at 37° C. and 5% CO2 in a humidified tissue culture incubator. After incubation, cells can be gently washed 3 times in PBS, followed by fixation at 4° C. for 10 minutes with 4% formaldehyde in PBS. […]
PLA can be performed using the Duolink In Situ Fluorescence (Far Red) kit according to manufacturer's instructions, using supplied buffers without substitution and at recommended volumes for 1 cm^2 samples. […] For quantitation of nuclear speckles in ImageJ, UV and Cy5.5 filtered images can be Z-projected (maximum intensity), and can be processed using a custom macro to identify nuclear boundaries (UV channel) and speckles (Cy5.5 channel). […]
Proximity ligation assay (PLA) in HeLa cells was performed using primary antibodies against YAP and TEAD, in which speckles (APC channel) overlapping DAPI-stained nuclei (UV channel) were produced. […] All P-values were determined by two-tailed T-test.

CC[C@H](C)[C@@H]1NC(=O)[C@H](C)NC(=O)[C@H](CO)NC(=O)[C@@H]2CSSC[C@@H]3NC(=O)[C@H](CCC(N)=O)NC(=O)[C@H](CC(N)=O)NC(=O)[C@H](CC(N)=O)NC(=O)[C@H](CCC(N)=O)NC(=O)[C@H](CSSC[C@H](NC(=O)[C@H](CCC(N)=O)NC(=O)[C@H](CC(N)=O)NC(=O)[C@H](CC(=O)O)NC(=O)[C@H](Cc4ccc(O)cc4)NC(=O)[C@H](CC(C)C)NC(=O)CNC(=O)[C@H](Cc4ccccc4)NC(=O)[C@H](CO)NC(=O)CN)C(=O)N[C@@H](C)C(=O)N[C@@H]([C@@H](C)O)C(=O)N[C@@H](CO)C(=O)N[C@@H](CC(=O)O)C(=O)N[C@@H](C)C(=O)N2)NC(=O)[C@H](CCCCN)NC(=O)CNC(=O)[C@H](CCC(N)=O)NC(=O)CNC(=O)[C@H](CO)NC(=O)CNC(=O)[C@H]([C@@H](C)O)NC(=O)[C@H](Cc2c[nH]c4ccccc24)NC(=O)[C@H](Cc2ccc(O)cc2)NC(=O)[C@H](CCCCN)NC(=O)[C@H](CSSC[C@@H](C(=O)N[C@@H](Cc2ccc(O)cc2)C(=O)O)NC(=O)[C@H](CCCNC(=N)N)NC3=O)NC1=O [SEQ ID NO: 3] (H-GSFGLYDNQCATSDACSAICKYWTGSGQGKCQNNQCRCY-OH; disulfide 10-31, 16-36, 20-38)
TEAD binding of HEK-293 cells expressing SDGF-peptide [1]: displayed binding to TEAD | affinity/binding to TEAD as compared to a peptide of SEQ ID NO: 1 [2]: lower binding affinity for TEAD

GSLERLKKCCNQGLDCEEARWKCEAEALFQGKNRETCLEEC [SEQ ID NO: 40]
TEAD binding of cells displaying variant versus parent peptide [1]: loss of binding to TEAD

GSLERLKKCCNQGLDCEEARWKCELEAAFQGKNRETCLEEC [SEQ ID NO: 41]
TEAD binding of cells displaying variant versus parent peptide [1]: loss of binding to TEAD

GSLERLKKCCNQGLDCEEARWKCELEALAQGKNRETCLEEC [SEQ ID NO: 42]
TEAD binding of cells displaying variant versus parent peptide [1]: loss of binding to TEAD

GSLERLKKCCNQGLDCEEARWKCELEALFQGKNRETCLEEC [SEQ ID NO: 2]
TEAD binding of HEK-293 cells expressing SDGF-peptide [1]: displayed binding to TEAD

GSLERLKKSSNQGLDSEEARWKSELEALFQGKNRETSLEES [SEQ ID NO: 185]
TEAD binding of cells displaying variant versus parent peptide [1]: loss of binding to TEAD

GSPDEYIERAKECCKKGDIQCCLRYFAESGDPNVMLICLFCP [SEQ ID NO: 4]
TEAD binding of cells displaying variant versus parent peptide [1]: loss of binding to TEAD

GSPDEYIERAKECCKKGDIQCCLRYFEESGDPNVALICLFCP [SEQ ID NO: 6]
TEAD binding of cells displaying variant versus parent peptide [1]: loss of binding to TEAD

GSPDEYIERAKECCKKGDIQCCLRYFEESGDPNVMLICAFCP [SEQ ID NO: 5]
TEAD binding of cells displaying variant versus parent peptide [1]: marginal loss of binding to TEAD | affinity/binding to TEAD as compared to a peptide of SEQ ID NO: 1 [2]: reduced affinity for TEAD

GSPDEYIERAKECCKKGDIQCCLRYFEESGDPNVMLICLACP [SEQ ID NO: 7]
TEAD binding of cells displaying variant versus parent peptide [1]: loss of binding to TEAD | affinity/binding to TEAD as compared to a peptide of SEQ ID NO: 1 [2]: reduced affinity for TEAD | FLAG-YAP pull-down with Myc-TEAD resin in the presence of peptide [3]: not pulled down

GSPDEYIERAKECCKKGDIQCCLRYFEESGDPNVMLICLFCP [SEQ ID NO: 1]
TEAD binding profile of displayed peptide ([1]; 20 nM TEAD concentration and 2-step staining): apparent but weak | TEAD binding of HEK-293 cells expressing SDGF-peptide [1]: displayed binding to TEAD | FLAG-YAP pull-down with Myc-TEAD resin in the presence of peptide [3]: not pulled down | inhibition of FLAG-YAP binding to Myc-TEAD resins ([3]; dilution series of peptide, Western blot): dose-dependent inhibition | binding to TEAD after reducing agent treatment ([4]; 10 mM DTT): partial loss in binding to TEAD | binding to TEAD after reducing agent treatment ([4]; 10 mM GSH): no loss in binding to TEAD

GSPDEYIERAKECCKKQDIQCCLRIFDESKDPNVMLICLFCP [SEQ ID NO: 11]
TEAD binding with the extra wash step ([1]; 20 nM TEAD, Extra Wash protocol): diminished binding

GSPDEYIERAKECCKKQDIQCCLRIFDESKDPNVMLICLFCW [SEQ ID NO: 9]
mean fluorescence intensity (MFI) of TEAD staining normalized to SEQ ID NO: 1 ([1]; 20 nM TEAD, Normal and Extra Wash protocols): performed the best | TEAD binding to YAP-displaying cells ([5]; YAP-displaying cells first incubated with TEAD prior to addition of peptide): near complete elimination of TEAD binding to YAP | TEAD binding to YAP-displaying cells ([5]; cells incubated with peptide, then 5 nM TEAD): near complete elimination of TEAD binding to YAP | YAP:TEAD PLA speckles per nucleus [6]: significantly reduces YAP:TEAD dimers in the nucleus; also recorded: significantly reduced | binding to TEAD after reducing agent treatment ([4]; 10 mM DTT): no loss in binding to TEAD | binding to TEAD after reducing agent treatment ([4]; 10 mM GSH): no loss in binding to TEAD

GSPDEYIERAKESSKKGDIQSSLRYFEESGDPNVMLISLFSP [SEQ ID NO: 184]
TEAD binding of cells displaying variant versus parent peptide [1]: loss of binding to TEAD
